Test results: ChEMBL document CHEMBL1146748, “Synthesis and preliminary biological evaluation of truncated zoanthenol analogues” (Bioorg Med Chem Lett, 2004)

tested on: MH60; experiment: Compound was tested for inhibition of interleukin-6-dependent MH60 cell growth; format: functional, cell-based; conditions: Mus musculus

SMILES | IC50
C[C@H]1C[C@@H]2C[N+]3=C4CCC[C@](C)(CC(=O)O)[C@]4(C)CC[C@@]3(C1)O2 | ~70 µM
CC1=CC(=O)[C@H]2CC(=O)[C@H]3[C@@](C)(CC4=[N+]5C[C@H]6C[C@H](C)C[C@]5(CC[C@@]4(C)[C@@]3(C)CC(=O)O)O6)[C@@H]2C1 | 13 µM
CCCCC1=C(C)C(=O)[C@](C)(CN2c3ccccc3[C@]3(O)CCOC23)C1=O (stereo partly specified) [MADINDOLINE A] | 8 µM
CC1=CC(=O)[C@@H]2[C@@H](C1)[C@]1(C)CC3=[N+]4C[C@H]5C[C@H](C)C[C@]4(CC[C@@]3(C)[C@@](C)(CC(=O)O)[C@H]1C(=O)[C@@H]2C)O5 | 26 µM

tested on: MH60; experiment: Compound was tested for inhibition of interleukin-6-dependent MH60 cell growth; Very weak inhibition; format: functional, cell-based; conditions: not given

SMILES | IC50
C[C@H]1C[C@@H]2CN3C45CCC[C@](C)(CC(=O)O4)[C@]5(C)CC[C@@]3(C1)O2 | Very weak inhibition
Cc1cc(O)c2c(c1)[C@]1(C)CC(=O)[C@@]3(C)CCCC[C@@]3(C)[C@@]1(C)C(=O)[C@@H]2C | Very weak inhibition
